Measured values: US8772500B2, “TRPV3 modulators” (AbbVie Inc., priority 2011, dated 2014)

Legend:
[1] = In vitro human microsomal stability assay; format: in vitro ADME
Protocol: (§1) Test compounds were evaluated for metabolic stability in an in vitro rat microsomal stability assay using rat (Sprague-Dawley, from BD Biosciences) liver microsomes and/or an in vitro human microsomal stability assay using human (Xenotech) liver microsomes. […] Incubations were carried out at 37° C. with a final incubation volume of 135 μL. […] A 1.5 μL aliquot of reduced nicotine adenine disphosphonucleotide (NADPH) (Chem-Impex Int'L Inc., Lot 12532024) was also added to the time-zero plates.

[2] = In vitro rat microsomal stability assay; format: in vitro ADME, rat (Sprague-Dawley)
Protocol: as §1

[3] = Sprague-Dawley, rat, 0.5 h, 0.5 μM, pH 7.4
[4] = 0.5 μM substrate, 0.25 mg/mL microsomal protein, pH 7.4, 37° C., NADPH, 30 minutes

HUMAN MICROSOMAL STABILITY (% REMAINING AFTER 30 MINUTES) ([1]; human, 0.5 h, 0.5 μM, pH 7.4)	RAT MICROSOMAL STABILITY (% REMAINING AFTER 30 MINUTES) [2, 3]	Compound	HUMAN MICROSOMAL STABILITY (% REMAINING AFTER 30 MINUTES) [1, 4]	RAT MICROSOMAL STABILITY (% REMAINING AFTER 30 MINUTES) [2, 4]
33%	30%	O/N=C(\c1ccccn1)C1(c2ccc(Cl)c(Cl)c2)CCC1 [Example 230, (Z)-[1-(3,4-dichlorophenyl)cyclobutyl](pyridin-2-yl)methanone oxime]	–	–
15%	<0.01%	COc1ccc(C(O)C2(c3ccc(Cl)c(Cl)c3)CCC2)nc1 (stereo not shown) [Example 287, [1-(3,4-dichlorophenyl)cyclobutyl](5-methoxypyridin-2-yl)methanol]	–	–
>85%	37%	OC(c1ccccn1)C1(c2ccccc2OC(F)(F)F)CCNCC1 (stereo not shown) [Example 142, pyridin-2-yl{4-[2-(trifluoromethoxy)phenyl]piperidin-4-yl}methanol]	–	–
>85%	2.0%	OC(c1ccccn1)C1(c2ccnc(C(F)(F)F)c2)CC2(C1)OCCO2 (stereo not shown) [Example 297, pyridin-2-yl{2-[2-(trifluoromethyl)pyridin-4-yl]-5,8-dioxaspiro[3.4]oct-2-yl}methanol]	–	–
3.7%	<0.01%	OC(C1CCc2cccnc21)C1(c2cccc(OC(F)(F)F)c2)CCC1 (stereo not drawn) [Example 190, (syn)-6,7-dihydro-5H-cyclopenta[b]pyridin-7-yl{1-[3-(trifluoromethoxy)-phenyl]cyclobutyl}methanol]	–	–
>85%	>85%	OC1CC(c2cc(C(F)(F)F)ccn2)([C@H](O)c2ccccn2)C1 (stereo partly drawn) [Example 294, 3-[(S)-hydroxy(pyridin-2-yl)methyl]-3-[4-(trifluoromethyl)pyridin-2-yl]cyclobutanol]	–	–
26%	0.08%	CC(C)(C)OC(=O)N1CCC(c2ccc(C(F)(F)F)cc2)(C(O)c2ccccn2)CC1 (stereo not shown) [Example 156, tert-butyl 4-[hydroxy(pyridin-2-yl)methyl]-4-[4-(trifluoromethyl)phenyl]-piperidine-1-carboxylate]	–	–
4.2%	<0.01%	COc1ccnc(C(O)C2(c3ccc(Cl)c(Cl)c3)CCC2)c1 (stereo not shown) [Example 289, [1-(3,4-dichlorophenyl)cyclobutyl](4-methoxypyridin-2-yl)methanol]	–	–
66%	82%	O=C1CC(c2ccc(F)c(Cl)c2)([C@H](O)c2ccccn2)C1 [Example 268, 3-(3-chloro-4-fluorophenyl)-3-[(S)-hydroxy(pyridin-2-yl)methyl]-cyclobutanone]	–	–
0.65%	<0.01%	OC(C1CCc2cccnc21)C1(c2cccc(OC(F)(F)F)c2)CCC1 (stereo not drawn) [Example 189, (anti)-6,7-dihydro-5H-cyclopenta[b]pyridin-7-yl{1-[3-(trifluoromethoxy)-phenyl]cyclobutyl}methanol]	–	–
>85%	>85%	O=C1CC(c2ccnc(C(F)(F)F)c2)([C@H](O)c2ccccn2)C1 [Example 299, 3-[(S)-hydroxy(pyridin-2-yl)methyl]-3-[2-(trifluoromethyl)pyridin-4-yl]cyclobutanone]	–	–
44%	55%	O=C1CC(c2cccc(OC(F)(F)F)c2)([C@H](O)c2ccccn2)C1 [Example 256, 3-[(S)-hydroxy(pyridin-2-yl)methyl]-3-[3-(trifluoromethoxy)phenyl]-cyclobutanone]	–	–
45%	<0.01%	OC(C1CCc2cccnc21)C1(c2ccc(C(F)(F)F)cc2)CCC1 (stereo not drawn) [Example 173, (anti)-6,7-dihydro-5H-cyclopenta[b]pyridin-7-yl{1-[4-(trifluoromethyl)-phenyl]cyclobutyl}methanol]	–	–
>85%	50%	OC1CC(c2ccc(OC(F)(F)F)cc2)(C(O)c2ccccn2)C1 (single isomer, unassigned) [Example 131]	–	–
28%	0.93%	CC(C)(C)OC(=O)N1CCC(c2ccc(OC(F)(F)F)cc2)(C(O)c2ccccn2)CC1 (stereo not shown) [Example 157, tert-butyl 4-[hydroxy(pyridin-2-yl)methyl]-4-[4-(trifluoromethoxy)phenyl]-piperidine-1-carboxylate]	–	–
70%	8.2%	O=C1CC(c2cncc(C(F)(F)F)c2)(C(O)c2ccccn2)C1 (stereo not shown) [Example 295, 3-[hydroxy(pyridin-2-yl)methyl]-3-[5-(trifluoromethyl)pyridin-3-yl]cyclobutanone]	–	–

HUMAN MICROSOMAL STABILITY (% REMAINING AFTER 30 MINUTES) ([1]; human, 0.5 h, 0.5 μM, pH 7.4)	RAT MICROSOMAL STABILITY (% REMAINING AFTER 30 MINUTES) [2, 3]	Compound	HUMAN MICROSOMAL STABILITY (% REMAINING AFTER 30 MINUTES) [1, 4]	RAT MICROSOMAL STABILITY (% REMAINING AFTER 30 MINUTES) [2, 4]
<0.01%	<0.01%	OC(C1CCCc2cccnc21)C1(c2ccccc2C(F)(F)F)CCC1 (stereo not drawn) [Example 195, (anti)-5,6,7,8-tetrahydroquinolin-8-yl{1-[2-(trifluoromethyl)phenyl]-cyclobutyl}methanol]	–	–
1.8%	0.31%	OC(c1ccccn1)C1(c2ccc(Cl)c(Cl)c2)CCCCC1 (stereo not shown) [Example 43, [1-(3,4-dichlorophenyl)cyclohexyl](pyridin-2-yl)methanol]	–	–
83%	77%	O=C1CC(c2ccc(C(F)(F)F)cc2)([C@@H](O)c2ccccn2)C1 [Example 165, 3-[(R)-hydroxy(pyridin-2-yl)methyl]-3-[4-(trifluoromethyl)phenyl]cyclobutanone]	–	–
28%	26%	O[C@@H](c1ccccn1)C1(c2cc(C(F)(F)F)ccn2)CCC1 [Example 122, (R)-pyridin-2-yl{1-[4-(trifluoromethyl)pyridin-2-yl]cyclobutyl}methanol]	–	–
71%	59%	OC(c1ccccn1)C1(C2(O)CCOC2)CCC1 (stereo not shown) [Example 246, 3-{1-[hydroxy(pyridin-2-yl)methyl]cyclobutyl}tetrahydrofuran-3-ol]	–	–
71%	81%	O=C1CC(c2ccc(C(F)(F)F)cc2)([C@H](O)c2ccccn2)C1 [Example 164, 3-[(S)-hydroxy(pyridin-2-yl)methyl]-3-[4-(trifluoromethyl)phenyl]-cyclobutanone]	–	–
–	–	CN1CCC(c2ccc(Cl)c(Cl)c2)(C(O)c2ccccn2)CC1 (stereo not shown) [Example 141, [4-(3,4-dichlorophenyl)-1-methylpiperidin-4-yl](pyridin-2-yl)methanol]	>85%	59%
>85%	37%	OC(c1ccccn1)C1(c2ccc(Cl)c(Cl)c2)CCNCC1 (stereo not shown) [Example 140, [4-(3,4-dichlorophenyl)piperidin-4-yl](pyridin-2-yl)methanol]	–	–
<0.01%	<0.01%	OC(C1CCCc2cccnc21)C1(c2ccccc2OC(F)(F)F)CCC1 (stereo not drawn) [Example 192, (syn)-5,6,7,8-tetrahydroquinolin-8-yl{1-[2-(trifluoromethoxy)phenyl]-cyclobutyl}methanol]	–	–
67%	12%	O=C1CC(c2cncc(C(F)(F)F)c2)([C@H](O)c2ccccn2)C1 [Example 296, 3-[(S)-hydroxy(pyridin-2-yl)methyl]-3-[5-(trifluoromethyl)pyridin-3-yl]cyclobutanone]	–	–
26%	<0.01%	OC(C1CCc2cccnc21)C1(c2ccc(C(F)(F)F)cc2)CCC1 (stereo not drawn) [Example 174, (syn)-6,7-dihydro-5H-cyclopenta[b]pyridin-7-yl{1-[4-(trifluoromethyl)-phenyl]cyclobutyl}methanol]	–	–
0.02%	<0.01%	OC(C1CCc2cccnc21)C1(c2ccccc2OC(F)(F)F)CCC1 (stereo not drawn) [Example 193, (anti)-6,7-dihydro-5H-cyclopenta[b]pyridin-7-yl{1-[2-(trifluoromethoxy)-phenyl]cyclobutyl}methanol]	–	–
1.6%	<0.01%	Nc1cccnc1C(O)C1(c2cccc(C(F)(F)F)c2)CCC1 (stereo not shown) [Example 120, (3-aminopyridin-2-yl){1-[3-(trifluoromethyl)phenyl]cyclobutyl}methanol]	–	–
47%	8.6%	OC(c1ccccn1)C1(c2ccc(Cl)c(Cl)c2)COC1 (stereo not shown) [Example 87, [3-(3,4-dichlorophenyl)oxetan-3-yl](pyridin-2-yl)methanol]	–	–
71%	52%	OC(c1ccccn1)C1(c2ccncc2)CCC1 (stereo not shown) [Example 21, pyridin-2-yl(1-pyridin-4-ylcyclobutyl)methanol]	–	–
<0.01%	<0.01%	OC(C1CCCc2cccnc21)C1(c2ccccc2C(F)(F)F)CCC1 (stereo not drawn) [Example 196, (syn)-5,6,7,8-tetrahydroquinolin-8-yl{1-[2-(trifluoromethyl)phenyl]-cyclobutyl}methanol]	–	–
